The results in this text go back to ChEMBL document CHEMBL1139662, “Synthesis and biological investigation of new 4''-malonyl tethered derivatives of erythromycin and clarithromycin” (Bioorg Med Chem Lett, 2006).

Values after ≈ are worked out from the molar mass of the structure shown.

The subject of assay [1] is Escherichia coli. Description: Inhibition of protein synthesis in Escherichia coli cell-free translational system. The format is functional.
Assay [2] has as its system Escherichia coli. Briefly: Antibacterial activity against macrolide-sensitive Escherichia coli HN818. The class given is functional.

Usually IC50 stands for the concentration that gives 50% inhibition. A low value points to inhibition by little substance. One may read the MIC as the smallest concentration in the dilution series that meets the test's criterion for growth inhibition. A higher MIC goes with weaker potency. In the case of `CC[C@H]1OC(=O)[C@H](C)[C@@H](OC2C[C@@](C)(OC)[C@@H](OC(=O)CC(=O)OCc3ccccc3)[C@H](C)O2)[C@H](C)[C@@H](OC2O[C@H](C)C[C@H](N(C)C)[C@H]2O)[C@](C)(O)C[C@@H](C)C(=O)[C@H](C)[C@@H](O)[C@]1(C)O` (stereo partly drawn), the IC50 in the assay on Escherichia coli [1] amounted to 1100 nM. Moreover, in the assay with Escherichia coli [2], the MIC came out at 8 µg/mL (≈ 8.79 µM).

In turn, `CC[C@H]1OC(=O)[C@H](C)[C@@H](OC2C[C@@](C)(OC)[C@@H](OC(=O)CC(=O)N(C)CCN(C)C)[C@H](C)O2)[C@H](C)[C@@H](OC2O[C@H](C)C[C@H](N(C)C)[C@H]2O)[C@](C)(O)C[C@@H](C)C(=O)[C@H](C)[C@@H](O)[C@]1(C)O` (stereo partly drawn) came in with an IC50 with Escherichia coli [1] of 1100 nM. In the assay with Escherichia coli [2], this compound displayed an MIC of 8 µg/mL (≈ 8.85 µM).

Consider `CC[C@H]1OC(=O)[C@H](C)[C@@H](OC2C[C@@](C)(OC)[C@@H](OC(=O)CC(=O)O)[C@H](C)O2)[C@H](C)[C@@H](OC2O[C@H](C)C[C@H](N(C)C)[C@H]2O)[C@](C)(OC)C[C@@H](C)C(=O)[C@H](C)[C@@H](O)[C@]1(C)O` (stereo partly drawn), for which the IC50 in the assay with Escherichia coli [1] was 3900 nM. In the assay with Escherichia coli [2], this compound had an MIC of 128 µg/mL (≈ 153 µM).

In the assay with Escherichia coli [1], `CC[C@H]1OC(=O)[C@H](C)[C@@H](OC2C[C@@](C)(OC)[C@@H](OC(=O)CC(=O)OCc3ccccc3)[C@H](C)O2)[C@H](C)[C@@H](OC2O[C@H](C)C[C@H](N(C)C)[C@H]2O)[C@](C)(OC)C[C@@H](C)C(=O)[C@H](C)[C@@H](O)[C@]1(C)O` (stereo partly drawn) returned an IC50 of 1200 nM. The same compound had an MIC with Escherichia coli [2] of 8 µg/mL (≈ 8.66 µM).

As for `CC[C@H]1OC(=O)[C@H](C)[C@@H](OC2C[C@@](C)(OC)[C@@H](OC(=O)CC(=O)O)[C@H](C)O2)[C@H](C)[C@@H](OC2O[C@H](C)C[C@H](N(C)C)[C@H]2O)[C@](C)(O)C[C@@H](C)C(=O)[C@H](C)[C@@H](O)[C@]1(C)O` (stereo partly drawn), 3700 nM corresponded to half-maximal inhibition with Escherichia coli [1] (IC50). Moreover, it took 128 µg/mL (≈ 156 µM) to inhibit growth against Escherichia coli [2] (MIC).

In the case of `CC[C@H]1OC(=O)[C@H](C)[C@@H](O[C@H]2C[C@@](C)(OC)[C@@H](O)[C@H](C)O2)[C@H](C)[C@@H](O[C@@H]2O[C@H](C)C[C@H](N(C)C)[C@H]2O)[C@](C)(OC)C[C@@H](C)C(=O)[C@H](C)[C@@H](O)[C@]1(C)O` [CLARITHROMYCIN], in the assay on Escherichia coli [2], the lowest concentration to inhibit growth (MIC) was 2 µg/mL (≈ 2.67 µM).

`CC[C@H]1OC(=O)[C@H](C)[C@@H](O[C@H]2C[C@@](C)(OC)[C@@H](O)[C@H](C)O2)[C@H](C)[C@@H](O[C@@H]2O[C@H](C)C[C@H](N(C)C)[C@H]2O)[C@](C)(O)C[C@@H](C)C(=O)[C@H](C)[C@@H](O)[C@]1(C)O` [ERYTHROMYCIN] yielded an IC50 in the assay with Escherichia coli [1] of 900 nM. The compound also registered an MIC in the assay on Escherichia coli [2] of 2 µg/mL (≈ 2.73 µM).
